The test system of data set [1] is Trypanosoma cruzi (amastigotes and trypomastigotes), Tulahuen strain. Description: Anti-Trypanosoma cruzi activity assay (amastigotes and trypomastigotes) in infected L929 cells, beta-galactosidase reporter. To be noted: 96 h incubation; for IC50: Trypanosoma cruzi, ± 0.2, read-out: Trypanocide IC50(μM) ± 0.2. Format: cell-based. On the procedure:
Flavanone derivatives were evaluated for anti-T. cruzi activity against the intracellular forms of the parasite. Although the use of epimastigotes present in the midgut vector may be utilized for initial screening, we have instead opted for the simultaneous use of trypomastigote and intracellular amastigotes forms that are present during both acute and chronic phases of the disease. This approach is in accordance with the Drugs for Neglected Diseases Initiative guidelines (DNDi). Moreover, it also has the advantage of evaluating bioactive compounds in infected cells while at the same time monitoring their effects on both the relevant forms of the parasite in the same system. Benznidazole was used as a positive control against T. cruzi and cytotoxicity was determined in mammalian L929 cells (Table 1). The bioavailability profile of the flavanones was evaluated by applying the Lipinski rule and data related to the risk of toxicity (mutagenicity, tumorigenicity, irritability, and effects on the reproductive system) carried out through online programs “Molinspiration” and “OSIRIS property explorer” (Table 1). […] Nevertheless, this preliminary result motivated us to investigate other analogs bearing substituents in order to improve potency and selectivity. […] Moreover, the selectivity of 2d was almost 4 times greater than 2a. The importance of methoxy substituents for trypanocidal activity has been noted in other studies. […] These compounds resembled more closely the chemical structure of the trypanocidal natural product (brevifolin carboxylate) that these structures were based on. Some enhancement in the trypanocidal activity of hybrid coumarin-chalcone compounds was also noted when the methoxy groups were introduced into either the 2 or 5 positions of the benzene ring. The inclusion of a pyridine moiety in compound 2e was supported by previous reports describing the anti-T. cruzi activity of 2-pyridyl derivatives and their capacity to inhibit cruzain catalytic activity. […] No improvements in anti-T. cruzi activity were also observed for flavanones substituted at the benzoyl moiety (2g–2o and 2v–2x). […] The physicochemical drug descriptors of the molecular properties for the synthesized compounds were calculated by Molinspiration software (Table 1). The majority of the tested compounds satisfy the Lipinski rule with no violations and therefore displaying potentially good bioavailability. There were no linear correlations observed between molecular hydrophobicity and bioactivity.
The in vitro anti-T. cruzi activity was evaluated on L929 cells (mouse fibroblasts) infected with Tulahuen strain of the parasite expressing the Escherichia coli β-galactosidase as reporter gene. Briefly, for the bioassay, 4000 L929 cells were added to each well of a 96-well microtiter plate. After an overnight incubation, 40,000 trypomastigotes were added to the cells and incubated for 2 h. Then, the medium containing extracellular parasites were replaced with 200 μL of fresh medium and the plate was incubated for an additional 48 h to establish the infection. For IC50 determination, the cells were exposed to each synthesized compound at serial decreasing dilutions and the plate was incubated for 96 h. After this period, 50 μL of 500 μM chlorophenol red beta-D-galactopyranoside (CPRG) in 0.5% Nonidet P40 was added to each well, and the plate was incubated for 16–20 h, after which the absorbance at 570 nm was measured. Controls with uninfected cells, untreated infected cells, infected cells treated with Benznidazole at 3.8 μM (positive control) or DMSO 1% were used. The results were expressed as the percentage of T. cruzi growth inhibition in compound-tested cells as compared to the infected cells and untreated cells. The IC50 values were calculated by linear interpolation. Quadruplicates were run in the same plate, and the experiments were repeated at least once.

Data set [2] in a line: In vitro cytotoxic test on uninfected L-929 cells (alamarBlue). Format: cell-based, mouse. As to conditions: mouse, uninfected L-929 cells; mammalian L929 cells, 96 h, alamarBlue; ± 2.0; read-out: Cytotoxicity CC50(μM) ± 2.0. On the procedure:
(§1) The active compounds were tested in vitro for determination of cellular toxicity against uninfected L-929 cells using the alamarBlue® dye. The cells were exposed to compounds at increasing concentrations starting at IC50 value for T. cruzi. After 96 h of incubation with the tested compounds, the alamarBlue® was added and the absorbance at 570 and 600 nm measured after 4–6 h. The cell viability was expressed as the percentage of difference in the reduction between treated and untreated cells. IC50 values were calculated by linear interpolation, and the selectivity index (SI) was determined based on the ratio of the IC50 value in the host cell divided by the IC50 value of the parasite. Quadruplicates were run in the same plate, and the experiments were repeated at least once.

For the next data set, the system named is L929 cells. The data set is described as above. Format: cell-based, mouse. To be noted: CC50 L929 / IC50 T. cruzi. On the procedure:
as §1

Take `O=C(c1ccccc1)[C@@H]1C(=O)c2ccccc2O[C@H]1c1ccccc1` (relative stereo) [Compound 2a, trans-3-benzoyl-2-phenylchroman-4-one]: the IC50 in data set [1] is 8.8 µM. For the same compound, the CC50 at 96 h in data set [2] was 80 µM. Also, the “SI (selectivity index calculated from CC50/IC50)” value in the data set on L929 cells was 9.1.
The matching figures for `O=C(c1ccccc1)[C@@H]1C(=O)c2ccccc2O[C@H]1c1ccccc1Cl` (relative stereo) [Compound 2b, trans-3-benzoyl-2-(2-chlorophenyl)chroman-4-one]: 10.7 µM, 442 µM and 40.3.
`O=C(c1ccccc1)[C@@H]1C(=O)c2ccccc2O[C@H]1c1ccc(F)cc1` (relative stereo) [Compound 2c, trans-3-benzoyl-2-(4-fluorophenyl)chroman-4-one]: the half-maximal inhibitory concentration (IC50) in data set [1] stood at 21.9 µM. Also, the CC50 at 96 h in data set [2] amounted to 231 µM. In addition, the “SI (selectivity index calculated from CC50/IC50)” value in the data set with L929 cells is on record as 10.5.
For the compound `COc1ccc([C@@H]2Oc3ccccc3C(=O)[C@H]2C(=O)c2ccccc2)cc1` (relative stereo) [Compound 2d, trans-3-benzoyl-2-(4-methoxyphenyl)chroman-4-one], the IC50 in data set [1] was 5.8 µM. For the same compound, the CC50 at 96 h in data set [2] turned out to be 223 µM. Further, the “SI (selectivity index calculated from CC50/IC50)” value in the data set on L929 cells is given as 38.5.
On the same counts, the results for `O=C(c1ccccc1)[C@@H]1C(=O)c2ccccc2O[C@H]1c1ccccn1` (relative stereo) [Compound 2e, trans-3-benzoyl-2-(pyridin-2-yl)chroman-4-one] are 184 µM, 243 µM and 1.3.
On the same counts, the results for `O=C(c1ccccc1)[C@@H]1C(=O)c2ccccc2O[C@H]1c1ccc(OCc2ccccc2)cc1` (relative stereo) [Compound 2f, trans-3-benzoyl-2-(4-(benzyloxy)phenyl)chroman-4-one] are 7.6 µM, 92.1 µM and 12.1.
For `Cc1ccc(C(=O)[C@@H]2C(=O)c3ccccc3O[C@H]2c2ccccc2)cc1` (relative stereo) [Compound 2g, trans-3-(4-methylbenzoyl)-2-phenylchroman-4-one], the “Trypanocide IC50(μM) ± 0.2” value in data set [1] is “Inactive”.
On to `Cc1ccc(C(=O)[C@@H]2C(=O)c3ccccc3O[C@H]2c2ccc(F)cc2)cc1` (relative stereo) [Compound 2h, trans-2-(4-fluorophenyl)-3-(4-methylbenzoyl)chroman-4-one], for which the 50% inhibitory concentration (IC50) in data set [1] was 22.5 µM. Moreover, the CC50 at 96 h in data set [2] is 111 µM. Further, the “SI (selectivity index calculated from CC50/IC50)” value in the data set on L929 cells was 4.9.
On the same counts, the results for `COc1ccc([C@@H]2Oc3ccccc3C(=O)[C@H]2C(=O)c2ccc(C)cc2)cc1` (relative stereo) [Compound 2i, trans-2-(4-methoxyphenyl)-3-(4-methylbenzoyl)chroman-4-one] are 25 µM, 107 µM and 4.3.
On the same counts, the results for `Cc1ccc(C(=O)[C@@H]2C(=O)c3ccccc3O[C@H]2c2ccccc2Cl)cc1` (relative stereo) [Compound 2j, trans-2-(2-chlorophenyl)-3-(4-methylbenzoyl)chroman-4-one] are 63 µM, 62.5 µM and 1.
On the same counts, the results for `O=C(c1ccc(Cl)cc1)[C@@H]1C(=O)c2ccccc2O[C@H]1c1ccccc1` (relative stereo) [Compound 2k, trans-3-(4-chlorobenzoyl)-2-phenylchroman-4-one] are 29.3 µM, 110 µM and 3.8.
As to `COc1ccc(C(=O)[C@@H]2C(=O)c3ccccc3O[C@H]2c2ccccc2)cc1` (relative stereo) [Compound 2l, trans-3-(4-methoxybenzoyl)-2-phenylchroman-4-one], in data set [1], the half-inhibitory concentration (IC50) was determined as 223 µM. Further, in data set [2], the CC50 at 96 h is 223 µM. In addition, the “SI (selectivity index calculated from CC50/IC50)” value in the data set with L929 cells was 1.
As to `COc1ccc(C(=O)[C@@H]2C(=O)c3ccccc3O[C@H]2c2ccc(OC)cc2)cc1` (relative stereo) [Compound 2m, trans-3-(4-methoxybenzoyl)-2-(4-methoxyphenyl)chroman-4-one], the IC50 in data set [1] was 37.4 µM. In addition, the CC50 at 96 h in data set [2] is 103 µM. In the data set on L929 cells, the “SI (selectivity index calculated from CC50/IC50)” value is reported as 2.8.
With `COc1ccc(C(=O)[C@@H]2C(=O)c3ccccc3O[C@H]2c2ccc(F)cc2)cc1` (relative stereo) [Compound 2n, trans-2-(4-fluorophenyl)-3-(4-methoxybenzoyl)chroman-4-one], the IC50 in data set [1] was 213 µM.
Regarding `COc1ccc(C(=O)[C@@H]2C(=O)c3ccccc3O[C@H]2c2ccccc2Cl)cc1` (relative stereo) [Compound 2o, trans-2-(2-chlorophenyl)-3-(4-methoxybenzoyl)chroman-4-one], the IC50 in data set [1] is 26.5 µM. The cytotoxic concentration (CC50) at 96 h in data set [2] was found to be 408 µM. The “SI (selectivity index calculated from CC50/IC50)” value in the data set with L929 cells was 15.4.
In the case of `COc1ccc2c(c1)C(=O)[C@@H](C(=O)c1ccccc1)[C@H](c1ccccc1)O2` (relative stereo) [Compound 2p, trans-3-benzoyl-6-methoxy-2-phenylchroman-4-one], the “Trypanocide IC50(μM) ± 0.2” value in data set [1] was “Inactive”.
As for `COc1ccc([C@@H]2Oc3ccc(OC)cc3C(=O)[C@H]2C(=O)c2ccccc2)cc1` (relative stereo) [Compound 2q, trans-3-benzoyl-6-methoxy-2-(4-methoxyphenyl)chroman-4-one], the IC50 in data set [1] was found to be 141 µM. Moreover, in data set [2], the cytotoxic concentration (CC50) at 96 h was 206 µM. Also, in the data set with L929 cells, the “SI (selectivity index calculated from CC50/IC50)” value was 1.4.
For `COc1ccc2c(c1)C(=O)[C@@H](C(=O)c1ccccc1)[C@H](c1ccc(F)cc1)O2` (relative stereo) [Compound 2r, trans-3-benzoyl-2-(4-fluorophenyl)-6-methoxychroman-4-one], the half-maximal inhibitory concentration (IC50) in data set [1] was determined as 17.6 µM. Further, in data set [2], the 50% cytotoxic concentration (CC50) at 96 h amounted to 106 µM. Also, the “SI (selectivity index calculated from CC50/IC50)” value in the data set with L929 cells is given as 6.1.
Turning to `O=C(c1ccco1)[C@@H]1C(=O)c2ccccc2O[C@H]1c1ccccc1` (relative stereo) [Compound 2v, trans-3-(furan-2-carbonyl)-2-phenylchroman-4-one], in data set [1], the “Trypanocide IC50(μM) ± 0.2” value is “Inactive”.
Same read-out and setting: the same measure for `COc1ccc([C@@H]2Oc3ccccc3C(=O)[C@H]2C(=O)c2ccco2)cc1` (relative stereo) [Compound 2w, trans-3-(furan-2-carbonyl)-2-(4-methoxyphenyl)chroman-4-one]: “Inactive”; for `O=C(c1ccco1)[C@@H]1C(=O)c2ccccc2O[C@H]1c1ccc(F)cc1` (relative stereo) [Compound 2x, trans-2-(4-fluorophenyl)-3-(furan-2-carbonyl)chroman-4-one]: “Inactive”; for `C[C@@H]1Oc2ccccc2C(=O)[C@H]1C(=O)c1ccccc1` (relative stereo) [Compound 3, trans-3-benzoyl-2-methylchroman-4-one]: “completely inactive”.
Consider `O=C(Cn1ccnc1[N+](=O)[O-])NCc1ccccc1` [Bnz, Benznidazole, reference compound], for which the IC50 in data set [1] stood at 3.8 µM. The “SI (selectivity index calculated from CC50/IC50)” value in the data set with L929 cells was 625.

Values taken from article PMC7024391, “Trypanocidal Activity of Flavanone Derivatives” (Molecules, 2020).
